Results: patent US20100216791A1, “PYRIDINYLQUINAZOLINAMINE DERIVATIVES AND THEIR USE AS B-RAF INHIBITORS” (ASTRAZENECA, priority 2006, published 2010)

Molecular target: Mutant B-Raf (V600E) enzyme (MT B-Raf) (Homo sapiens, UniProt P15056, V600E)
Test: biochemical
Conditions: B-Raf Alpha screen comparable to the described assay; phosphorylation of biotinylated HIS-MEK-AVI; results may be an average of two or more results

Chain of Mutant B-Raf (V600E) enzyme (MT B-Raf) (P15056 whole entry V600E): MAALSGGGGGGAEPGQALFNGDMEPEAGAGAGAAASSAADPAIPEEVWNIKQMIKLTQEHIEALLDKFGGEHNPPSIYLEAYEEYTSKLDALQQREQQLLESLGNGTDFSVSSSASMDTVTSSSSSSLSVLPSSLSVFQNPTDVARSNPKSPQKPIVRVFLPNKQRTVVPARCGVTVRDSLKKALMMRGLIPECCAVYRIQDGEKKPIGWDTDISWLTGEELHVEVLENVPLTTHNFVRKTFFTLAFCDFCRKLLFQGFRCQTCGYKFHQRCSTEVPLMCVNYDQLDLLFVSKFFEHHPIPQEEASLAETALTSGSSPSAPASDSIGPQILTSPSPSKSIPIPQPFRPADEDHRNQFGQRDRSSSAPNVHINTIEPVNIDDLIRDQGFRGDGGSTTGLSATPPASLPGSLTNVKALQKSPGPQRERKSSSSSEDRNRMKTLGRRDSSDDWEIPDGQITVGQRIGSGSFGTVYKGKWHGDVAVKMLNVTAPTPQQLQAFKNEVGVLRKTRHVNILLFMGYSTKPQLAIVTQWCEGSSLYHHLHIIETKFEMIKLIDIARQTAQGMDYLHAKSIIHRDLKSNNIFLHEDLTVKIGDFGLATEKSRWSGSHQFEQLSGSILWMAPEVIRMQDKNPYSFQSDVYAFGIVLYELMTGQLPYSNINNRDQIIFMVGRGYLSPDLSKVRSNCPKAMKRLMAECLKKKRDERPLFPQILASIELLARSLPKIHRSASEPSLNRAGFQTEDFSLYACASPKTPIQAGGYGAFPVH

Compound	IC50
c1cc(-c2ccc3nc(Nc4ccc(OCCN5CCOCC5)cc4)ncc3c2)ccn1 [Example 43, N-[4-(2-Morpholin-4-ylethoxy)phenyl]-6-pyridin-4-ylquinazolin-2-amine]	160 nM
CC(c1ccc(Nc2ncc3cc(-c4ccncc4)ccc3n2)cc1)N(C)C (stereo not drawn) [Example 133]	46 nM
Fc1ccc(Nc2ncc3cc(-c4ccncc4)ccc3n2)cc1 [Example 105, N-(4-Fluorophenyl)-6-pyridin-4-ylquinazolin-2-amine]	1200 nM
COc1cc(Nc2ncc3cc(-c4ccncc4)ccc3n2)cc(C(F)(F)F)c1 [Example 101, N-[3-Methoxy-5-(trifluoromethyl)phenyl]-6-pyridin-4-ylquinazolin-2-amine]	1700 nM
COCCNC(=O)c1ccc(Nc2ncc3cc(-c4ccncc4)ccc3n2)cc1Cl [Example 10, 2-Chloro-N-(2-methoxyethyl)-4-[(6-pyridin-4-ylquinazolin-2-yl)amino]benzamide]	350 nM
O=S(=O)(c1ccc(Nc2ncc3cc(-c4ccncc4)ccc3n2)cc1)C(F)F [Example 95, N-{4-[(Difluoromethyl)sulfonyl]phenyl}-6-pyridin-4-ylquinazolin-2-amine]	1000 nM
CCOc1ccc(Nc2ncc3cc(-c4ccncc4)ccc3n2)cc1 [Example 97, N-(4-Ethoxyphenyl)-6-pyridin-4-ylquinazolin-2-amine]	450 nM
O=C(NCC(O)CO)c1ccc(Nc2ncc3cc(-c4ccncc4)ccc3n2)cc1 (stereo not drawn) [Example 61, N-(2,3-Dihydroxypropyl)-4-[(6-pyridin-4-ylquinazolin-2-yl)amino]benzamide]	100 nM
CC(c1ccc(Nc2ncc3cc(-c4ccncc4)ccc3n2)cc1)N(C)CCO (stereo not drawn) [Example 134]	35 nM
CN(CCO)Cc1ccc(Nc2ncc3cc(-c4ccncc4)ccc3n2)cc1 [Example 75, 2-(Methyl{4-[(6-pyridin-4-ylquinazolin-2-yl)amino]benzyl}amino)ethanol]	24 nM
O=C1CCCN1c1ccc(Nc2ncc3cc(-c4ccncc4)ccc3n2)cc1 [Example 54, 1-{4-[(6-Pyridin-4-ylquinazolin-2-yl)amino]phenyl}pyrrolidin-2-one]	120 nM
NCCCNC(=O)c1ccc(Nc2ncc3cc(-c4ccncc4)ccc3n2)cc1 [Example 62, N-(3-Aminopropyl)-4-[(6-pyridin-4-ylquinazolin-2-yl)amino]benzamide]	93 nM
CN1CCCN(C(=O)c2ccc(Nc3ncc4cc(-c5ccncc5)ccc4n3)cc2)CC1 [Example 116, N-{4-[(4-Methyl-1,4-diazepan-1-yl)carbonyl]phenyl}-6-pyridin-4-ylquinazolin-2-amine]	63 nM
O=C(NC1CCNCC1)c1ccc(Nc2ncc3cc(-c4ccncc4)ccc3n2)cc1 [Example 67, N-Piperidin-4-yl-4-[(6-pyridin-4-ylquinazolin-2-yl)amino]benzamide]	110 nM
c1cnn(-c2ccc(Nc3ncc4cc(-c5ccncc5)ccc4n3)cc2)c1 [Example 108, N-[4-(1H-Pyrazol-1-yl)phenyl]-6-pyridin-4-ylquinazolin-2-amine]	250 nM
Cc1ccc(Nc2ncc3cc(-c4ccncc4)ccc3n2)cc1 [Example 106, N-(4-Methylphenyl)-6-pyridin-4-ylquinazolin-2-amine]	23000 nM
Cc1cc(Nc2ncc3cc(-c4ccncc4)ccc3n2)ccc1C(C)N(C)P(C)(C)=O (stereo not drawn) [Example 130]	120 nM
O=C(NCCN1CCCCC1)c1ccc(Nc2ncc3cc(-c4ccncc4)ccc3n2)cc1 [Example 27, N-(2-Piperidin-1-ylethyl)-4-[(6-pyridin-4-ylquinazolin-2-yl)amino]benzamide]	87 nM

Compound	IC50
O=C(NCCCN1CCOCC1)c1ccc(Nc2ncc3cc(-c4ccncc4)ccc3n2)cc1 [Example 22, N-(3-Morpholin-4-ylpropyl)-4-[(6-pyridin-4-ylquinazolin-2-yl)amino]benzamide]	91 nM
COCCNC(=O)c1ccc(Nc2ncc3cc(-c4ccncc4F)ccc3n2)cc1 [Example 48, 4-{[6-(3-Fluoropyridin-4-yl)quinazolin-2-yl]amino}-N-(2-methoxyethyl)benzamide]	270 nM
CC(c1ccc(Nc2ncc3cc(-c4ccncc4)ccc3n2)cc1)N(C)C (single isomer, unassigned) [Example 139]	36 nM
CC(C)(C)OC(=O)NCCCNC(=O)c1ccc(Nc2ncc3cc(-c4ccncc4)ccc3n2)cc1 [Example 26, tert-Butyl [3-({4-[(6-pyridin-4-ylquinazolin-2-yl)amino]benzoyl}amino)propyl]carbamate]	550 nM
COCCNC(=O)c1ccc(Nc2ncc3cc(-c4ccnc(OC)c4)ccc3n2)cc1 [Example 115]	520 nM
O=C(O)c1ccc(Nc2ncc3cc(-c4ccncc4)ccc3n2)cc1 [Example 122, 4-(6-(Pyridin-4-yl)quinazolin-2-ylamino)benzoic acid]	78 nM
CC(CN(C)C)NCc1ccc(Nc2ncc3cc(-c4ccncc4)ccc3n2)cc1 (stereo not drawn) [Example 74, N^1,N^1-Dimethyl-N^2-{4-[(6-pyridin-4-ylquinazolin-2-yl)amino]benzyl}propane-1,2-diamine]	160 nM
CN1CCN(Cc2ccc(Nc3ncc4cc(-c5ccncc5)ccc4n3)cc2)CC1 [Example 132]	73 nM
FC(F)(F)Oc1ccc(Nc2ncc3cc(-c4ccncc4)ccc3n2)cc1 [Example 99, 6-Pyridin-4-yl-N-[4-(trifluoromethoxy)phenyl]quinazolin-2-amine]	1100 nM
O=S(=O)(c1ccc(Nc2ncc3cc(-c4ccncc4)ccc3n2)cc1)N1CCCC1 [Example 96, 6-Pyridin-4-yl-N-[4-(pyrrolidin-1-ylsulfonyl)phenyl]quinazolin-2-amine]	740 nM
c1cc(-c2ccc3nc(Nc4ccc5c(c4)OCO5)ncc3c2)ccn1 [Example 44, N-1,3-Benzodioxol-5-yl-6-pyridin-4-ylquinazolin-2-amine]	420 nM
O=S(=O)(c1cccc(Nc2ncc3cc(-c4ccncc4)ccc3n2)c1)N1CCOCC1 [Example 102, N-[3-(Morpholin-4-ylsulfonyl)phenyl]-6-pyridin-4-ylquinazolin-2-amine]	520 nM
CN1CCN(C(=O)c2ccc(Nc3ncc4cc(-c5ccncc5)ccc4n3)cc2)CC1 [Example 120]	56 nM
OCc1ccc(Nc2ncc3cc(-c4ccncc4)ccc3n2)cc1 [Example 78, {4-[(6-Pyridin-4-ylquinazolin-2-yl)amino]phenyl}methanol]	66 nM
Nc1ccc(Nc2ncc3cc(-c4ccncc4)ccc3n2)cc1 [Example 137]	80 nM
CN(C)C(=O)c1ccc(Nc2ncc3cc(-c4ccncc4)ccc3n2)cc1 [Example 30, N,N-Dimethyl-4-[(6-pyridin-4-ylquinazolin-2-yl)amino]benzamide]	83 nM
O=C(NCC1CCNCC1)c1ccc(Nc2ncc3cc(-c4ccncc4)ccc3n2)cc1 [Example 64, N-(Piperidin-4-ylmethyl)-4-[(6-pyridin-4-ylquinazolin-2-yl)amino]benzamide]	22 nM
CN(CCCNC(=O)c1ccc(Nc2ncc3cc(-c4ccncc4)ccc3n2)cc1)C(=O)OC(C)(C)C [Example 13, tert-Butyl methyl[3-({4-[(6-pyridin-4-ylquinazolin-2-yl)amino]benzoyl}amino)propyl]carbamate]	310 nM
